Results as given in PMC2873968, “Novel protein kinase D inhibitors cause potent arrest in prostate cancer cell growth and motility” (BMC Chemical Biology, 2010).

Columns and labels:
PC3 cells [1] = assay: Cell proliferation assay (cell counts, trypan blue); format: cell-based; details: 10 μM, cell counts over six days
Excerpt: Cells were allowed to attach overnight.

PKCδ = molecular target: T1, PKCδ (Homo sapiens, UniProt Q05655); assay: In vitro radiometric PKC kinase assay; format: biochemical
T1 construct: purchased Enzo Life Sciences
Procedure: The PKC in vitro kinase assays were performed as described previously.
(§1) To determine whether the novel analogs retained this specificity, we tested the compounds against their ability to inhibit PKCα, -βI, -δ, and CAMKIIα in in vitro radiometric kinase activity assays.
Inhibition of PKCα (A), PKCβI (B), PKCδ (C), or CAMKIIα (D) by each of the 5 analogs was determined at 100 nM, 1 μM, and 10 μM concentrations. […] Data are the mean ± S.E.M. of three independent experiments. Statistical significance was determined using the unpaired t-test. ns, not statistically significant; *, p < 0.05; **, p < 0.01; ***, p < 0.001.

CAMKIIα = molecular target: T2, CAMKIIα (Homo sapiens, UniProt Q9UQM7); assay: In vitro radiometric CAMK kinase assay; format: biochemical
T2 construct: purchased Enzo Life Sciences
Procedure: In vitro radiometric kinase assays were conducted as previously described. Briefly, 1 μCi [γ-^32P] ATP (PerkinElmer Life Sciences), 70 μM ATP, 50 ng purified recombinant human PKD1 (Biomol International, Plymouth Meeting, PA), PKD2 (SignalChem, Richmond, BC, Canada), or CAMKIIα (Enzo Life Sciences) or 75 ng PKD3 (Enzo Life Sciences), and 2.5 μg syntide-2 (Sigma) in 50 μl kinase buffer containing 50 mM Tris-HCl, pH 7.5, 4 mM MgCl2, and 10 mM β-mercaptoethanol. For the CAMK assay, 0.5 mM CaCl2 and 30 ng/μl calmodulin were pre-incubated for 10 min on ice, and then added to each reaction mixture. The reaction was incubated at 30°C for 10 min, and 25 μl of the reaction mixture was then spotted onto Whatman P81 filter paper (Whatman Inc., Clifton, NJ). The filter papers were washed 3 times in 0.5% phosphoric acid, air-dried, and counted using a Beckman LS6500 multipurpose scintillation counter (Beckman).
as §1
Inhibition of PKCα (A), PKCβI (B), PKCδ (C), or CAMKIIα (D) by each of the 5 analogs was determined at 100 nM, 1 μM, and 10 μM concentrations. […] Statistical significance was determined using the unpaired t-test. ns, not statistically significant; *, p < 0.05; **, p < 0.01; ***, p < 0.001.

PC3 cells [2] = tested on: PC3 cells; parameters: method as in PMID 18829454; details: 10 or 25 μM for six days; cited from earlier work
CAK = tested on: CAK; parameters: method as in PMID 18829454; details: previously reported; cited from earlier work
AKT2 = AKT2 (Homo sapiens, UniProt P31751); assay: Kinase profiling, single-dose in vitro kinase assay (Caliper Life Sciences); details: read-out: Average % Inhibition AKT2
AurA = AurA (Homo sapiens, UniProt O14965); assay: as above; details: read-out: Average % Inhibition AurA
BTK = BTK (Homo sapiens, UniProt Q06187); assay: as above; details: read-out: Average % Inhibition BTK
CAMK4 = CAMK4 (Homo sapiens, UniProt Q16566); assay: as above; details: read-out: Average % Inhibition CAMK4
CHK1 = CHK1 (Homo sapiens, UniProt O14757); assay: as above; details: read-out: Average % Inhibition CHK1
CHK2 = CHK2 (Homo sapiens, UniProt O96017); assay: as above; details: read-out: Average % Inhibition CHK2
EGFR = EGFR (Homo sapiens, UniProt P00533); assay: as above; details: read-out: Average % Inhibition EGFR
Erk1 = Erk1 (Homo sapiens, UniProt P27361); assay: as above; details: read-out: Average % Inhibition Erk1, 10 μM
Ikkb = Ikkb (Homo sapiens, UniProt O14920); assay: as above; details: read-out: Average % Inhibition Ikkb
JNK2 = JNK2 (Homo sapiens, UniProt P45984); assay: as above; details: read-out: Average % Inhibition JNK2
KDR = KDR (Homo sapiens, UniProt P35968); assay: as above; details: read-out: Average % Inhibition KDR
MET = MET (Homo sapiens, UniProt P08581); assay: as above; details: read-out: Average % Inhibition MET
PDK1 = PDK1 (Homo sapiens, UniProt O15530); assay: as above; details: read-out: Average % Inhibition PDK1
PKG1α = PKG1α (Homo sapiens, UniProt Q13976); assay: as above; details: read-out: Average % Inhibition PKG1α
PKG1β = PKG1β (Homo sapiens, UniProt Q13976); assay: as above; details: read-out: Average % Inhibition PKG1β
RSK1 = RSK1 (Homo sapiens, UniProt Q15418); assay: as above; details: read-out: Average % Inhibition RSK1
SGK1 = SGK1 (Homo sapiens, UniProt O00141); assay: as above; details: read-out: Average % Inhibition SGK1
SRC = SRC (Homo sapiens, UniProt P12931); assay: as above; details: read-out: Average % Inhibition SRC
SRC, sequence (P12931 whole entry): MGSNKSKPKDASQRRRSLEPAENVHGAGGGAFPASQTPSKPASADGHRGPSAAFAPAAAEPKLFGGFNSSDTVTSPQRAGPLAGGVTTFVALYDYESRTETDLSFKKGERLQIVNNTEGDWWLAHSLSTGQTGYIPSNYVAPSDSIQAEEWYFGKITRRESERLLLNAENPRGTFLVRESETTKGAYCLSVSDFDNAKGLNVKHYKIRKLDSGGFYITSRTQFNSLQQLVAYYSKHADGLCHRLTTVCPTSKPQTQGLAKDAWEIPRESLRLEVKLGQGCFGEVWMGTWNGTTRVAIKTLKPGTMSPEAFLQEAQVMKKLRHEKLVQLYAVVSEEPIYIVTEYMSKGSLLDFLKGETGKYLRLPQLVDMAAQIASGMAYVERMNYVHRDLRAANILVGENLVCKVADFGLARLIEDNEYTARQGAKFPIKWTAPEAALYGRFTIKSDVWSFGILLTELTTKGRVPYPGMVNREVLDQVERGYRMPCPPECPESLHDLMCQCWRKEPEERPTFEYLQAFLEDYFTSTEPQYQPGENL

T1 sequence (Q05655 whole entry): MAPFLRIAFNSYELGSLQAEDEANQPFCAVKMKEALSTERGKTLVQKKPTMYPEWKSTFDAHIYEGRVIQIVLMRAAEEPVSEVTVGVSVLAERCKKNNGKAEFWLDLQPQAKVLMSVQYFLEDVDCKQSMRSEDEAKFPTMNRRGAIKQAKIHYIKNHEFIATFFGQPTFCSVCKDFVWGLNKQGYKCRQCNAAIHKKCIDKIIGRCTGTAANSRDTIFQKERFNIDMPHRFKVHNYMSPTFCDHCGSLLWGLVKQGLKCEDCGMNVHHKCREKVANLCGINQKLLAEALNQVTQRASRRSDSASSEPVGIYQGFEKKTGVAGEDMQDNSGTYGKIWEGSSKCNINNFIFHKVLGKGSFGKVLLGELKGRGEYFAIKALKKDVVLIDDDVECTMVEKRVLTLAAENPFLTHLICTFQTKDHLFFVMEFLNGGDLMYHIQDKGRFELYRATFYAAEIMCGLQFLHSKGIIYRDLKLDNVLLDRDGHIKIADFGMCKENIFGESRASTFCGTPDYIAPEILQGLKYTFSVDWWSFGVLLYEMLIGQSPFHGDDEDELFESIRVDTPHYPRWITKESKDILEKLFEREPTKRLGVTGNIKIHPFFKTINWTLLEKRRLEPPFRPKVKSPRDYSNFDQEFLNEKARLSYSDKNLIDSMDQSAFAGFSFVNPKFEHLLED
KDR, sequence (P35968 20-1356): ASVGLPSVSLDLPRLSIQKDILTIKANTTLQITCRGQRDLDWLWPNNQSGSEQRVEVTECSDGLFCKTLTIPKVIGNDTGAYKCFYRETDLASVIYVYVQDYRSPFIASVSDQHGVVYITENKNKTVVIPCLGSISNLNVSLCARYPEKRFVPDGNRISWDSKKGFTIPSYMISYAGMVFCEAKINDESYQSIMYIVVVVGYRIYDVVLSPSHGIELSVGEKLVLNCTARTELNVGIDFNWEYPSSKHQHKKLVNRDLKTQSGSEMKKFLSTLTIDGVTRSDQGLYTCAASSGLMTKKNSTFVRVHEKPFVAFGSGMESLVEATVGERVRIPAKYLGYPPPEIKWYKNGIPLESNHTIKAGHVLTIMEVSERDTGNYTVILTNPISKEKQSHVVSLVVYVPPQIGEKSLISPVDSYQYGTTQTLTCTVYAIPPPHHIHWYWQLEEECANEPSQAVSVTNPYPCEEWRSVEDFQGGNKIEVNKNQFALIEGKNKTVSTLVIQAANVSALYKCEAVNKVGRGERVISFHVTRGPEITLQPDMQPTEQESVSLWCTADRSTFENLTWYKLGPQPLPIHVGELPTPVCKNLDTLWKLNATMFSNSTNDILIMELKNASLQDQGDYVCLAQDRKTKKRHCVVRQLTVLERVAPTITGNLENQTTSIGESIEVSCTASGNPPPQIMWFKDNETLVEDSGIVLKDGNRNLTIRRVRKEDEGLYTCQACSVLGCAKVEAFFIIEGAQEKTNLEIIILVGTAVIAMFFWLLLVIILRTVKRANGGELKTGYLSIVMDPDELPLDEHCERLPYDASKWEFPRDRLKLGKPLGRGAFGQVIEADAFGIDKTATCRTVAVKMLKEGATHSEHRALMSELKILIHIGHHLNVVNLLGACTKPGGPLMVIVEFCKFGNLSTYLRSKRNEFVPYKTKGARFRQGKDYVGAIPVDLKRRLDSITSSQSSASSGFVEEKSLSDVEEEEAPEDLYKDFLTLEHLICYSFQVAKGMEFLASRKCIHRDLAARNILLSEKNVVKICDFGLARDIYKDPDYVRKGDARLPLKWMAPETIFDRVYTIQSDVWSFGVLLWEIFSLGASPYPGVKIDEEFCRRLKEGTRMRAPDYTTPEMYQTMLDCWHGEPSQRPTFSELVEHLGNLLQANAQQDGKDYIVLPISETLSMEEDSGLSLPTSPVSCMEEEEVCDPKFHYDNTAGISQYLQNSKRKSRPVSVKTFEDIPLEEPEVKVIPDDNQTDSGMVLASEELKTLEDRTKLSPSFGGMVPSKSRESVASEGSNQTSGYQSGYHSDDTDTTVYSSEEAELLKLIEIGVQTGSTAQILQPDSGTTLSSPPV
RSK1, sequence (Q15418 whole entry): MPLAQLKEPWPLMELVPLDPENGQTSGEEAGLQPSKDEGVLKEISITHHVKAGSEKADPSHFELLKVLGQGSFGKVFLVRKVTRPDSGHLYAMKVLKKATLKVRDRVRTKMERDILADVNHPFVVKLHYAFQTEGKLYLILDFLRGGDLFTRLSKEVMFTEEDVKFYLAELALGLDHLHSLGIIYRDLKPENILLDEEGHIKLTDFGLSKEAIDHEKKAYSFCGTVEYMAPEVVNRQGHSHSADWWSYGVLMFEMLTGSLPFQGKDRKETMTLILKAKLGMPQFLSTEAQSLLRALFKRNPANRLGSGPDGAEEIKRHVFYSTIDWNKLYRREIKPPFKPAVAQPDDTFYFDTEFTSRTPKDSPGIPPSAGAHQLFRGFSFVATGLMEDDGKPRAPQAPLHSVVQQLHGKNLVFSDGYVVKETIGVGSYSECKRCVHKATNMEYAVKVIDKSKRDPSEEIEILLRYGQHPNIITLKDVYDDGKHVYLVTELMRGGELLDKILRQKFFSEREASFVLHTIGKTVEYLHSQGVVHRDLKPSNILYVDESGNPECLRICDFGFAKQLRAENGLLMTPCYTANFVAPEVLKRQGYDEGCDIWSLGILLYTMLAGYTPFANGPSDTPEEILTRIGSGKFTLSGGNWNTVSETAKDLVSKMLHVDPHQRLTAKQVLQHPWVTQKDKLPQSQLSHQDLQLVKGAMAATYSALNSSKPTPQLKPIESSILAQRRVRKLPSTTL
CHK2, sequence (O96017 whole entry): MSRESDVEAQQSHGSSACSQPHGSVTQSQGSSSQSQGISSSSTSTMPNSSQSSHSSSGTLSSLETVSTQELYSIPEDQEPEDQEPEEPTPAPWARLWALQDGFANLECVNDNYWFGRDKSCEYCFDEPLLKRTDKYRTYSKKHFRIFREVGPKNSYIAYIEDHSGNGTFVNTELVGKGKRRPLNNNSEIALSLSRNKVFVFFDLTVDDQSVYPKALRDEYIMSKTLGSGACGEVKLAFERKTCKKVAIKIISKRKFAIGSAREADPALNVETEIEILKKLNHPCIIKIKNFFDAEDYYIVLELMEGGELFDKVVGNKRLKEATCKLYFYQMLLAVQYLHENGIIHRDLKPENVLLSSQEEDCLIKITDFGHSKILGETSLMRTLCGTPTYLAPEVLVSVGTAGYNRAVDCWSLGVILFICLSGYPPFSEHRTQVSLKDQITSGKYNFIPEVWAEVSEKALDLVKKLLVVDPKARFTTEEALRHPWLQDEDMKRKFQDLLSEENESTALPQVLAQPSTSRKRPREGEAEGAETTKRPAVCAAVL
Erk1, sequence (P27361 whole entry): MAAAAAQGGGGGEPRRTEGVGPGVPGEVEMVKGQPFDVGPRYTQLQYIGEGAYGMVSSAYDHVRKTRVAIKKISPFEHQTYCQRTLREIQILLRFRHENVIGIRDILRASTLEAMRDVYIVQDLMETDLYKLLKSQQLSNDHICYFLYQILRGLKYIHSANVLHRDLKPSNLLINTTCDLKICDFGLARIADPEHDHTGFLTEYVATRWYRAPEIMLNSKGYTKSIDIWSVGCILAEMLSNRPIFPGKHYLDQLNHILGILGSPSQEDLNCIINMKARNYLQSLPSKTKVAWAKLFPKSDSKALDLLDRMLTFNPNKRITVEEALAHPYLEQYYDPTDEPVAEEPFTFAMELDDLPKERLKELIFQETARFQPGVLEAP
CHK1, sequence (O14757 whole entry): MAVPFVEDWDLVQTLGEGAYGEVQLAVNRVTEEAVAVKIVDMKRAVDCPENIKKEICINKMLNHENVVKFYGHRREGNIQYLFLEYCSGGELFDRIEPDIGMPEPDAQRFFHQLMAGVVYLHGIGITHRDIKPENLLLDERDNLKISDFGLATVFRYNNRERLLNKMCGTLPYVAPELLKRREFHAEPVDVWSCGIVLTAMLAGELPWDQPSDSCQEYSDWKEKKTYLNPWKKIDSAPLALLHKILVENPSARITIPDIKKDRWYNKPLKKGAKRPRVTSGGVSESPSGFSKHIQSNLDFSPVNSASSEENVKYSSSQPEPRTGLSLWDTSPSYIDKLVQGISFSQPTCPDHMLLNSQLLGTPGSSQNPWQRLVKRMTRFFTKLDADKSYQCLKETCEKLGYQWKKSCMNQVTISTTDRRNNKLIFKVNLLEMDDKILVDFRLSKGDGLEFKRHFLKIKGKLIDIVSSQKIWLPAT

In the case of `O=C1NCCSc2c1sc1ccc(O)cc21` [kb-NB142-70], the “effect on cell proliferation” value (PC3 cells [1]) is reported as “most potent among the compounds”.

For `O=C1NCCSc2c1sc1ccc(O)c(I)c21` [kb-NB165-31], the “inhibition of PKCδ (in words)” value (PKCδ) was “significant inhibitory activity”, the inhibition at 10 µM (PKCδ; 10 μM, read-out: inhibitory activity toward PKCδ) was about 50% and the “inhibition of CAMKIIα (in words)” value (CAMKIIα) was “significant inhibitory activity”. It also gave an inhibition at 10 µM (CAMKIIα; 10 μM) of about 70%.

In the case of `O=C1NCCCc2c1oc1ccc(O)cc21` [CID755673, 7-Hydroxy-2,3,4,5-tetrahydro-[1]benzoxolo[2,3-c]azepin-1-one], the cell cycle arrest (PC3 cells [2]) is given as “caused G2/M phase cell cycle arrest”, the “inhibition of CAK” value (CAK) is given as “did not inhibit” and the inhibition at 10 µM (AKT2) is given as 4%. It also gave an inhibition at 10 µM (AurA) of 7%, an inhibition at 10 µM (BTK) of -3% and an inhibition at 10 µM (CAMK4) of 17%. The inhibition at 10 µM (CHK1) was 7%, the inhibition at 10 µM (CHK2) was 4% and the inhibition at 10 µM (EGFR) was 11%. It also gave an inhibition at 10 µM (Erk1) of at least 50%, an inhibition at 10 µM (Ikkb) of 49% and an inhibition at 10 µM (JNK2) of 36%. The inhibition at 10 µM (KDR) was 8%, the inhibition at 10 µM (MET) was 18% and the inhibition at 10 µM (PDK1) was 22%. For the same molecule, the inhibition at 10 µM (PKG1α) was 13%, the inhibition at 10 µM (PKG1β) was 11% and the inhibition at 10 µM (RSK1) was 29%. It also gave an inhibition at 10 µM (SGK1) of 9% and an inhibition at 10 µM (SRC) of 7%.
